Results reported in US8466155B2, “Pyrimidines” (Boehringer Ingelheim International GmbH, priority 2009, dated 2013).

What follows are compounds tested against T1, PTK2 (Homo sapiens, UniProt Q05397) (assay: PTK2 enzyme test, Assay 1 (DELFIA, PT60 antibody)). Details: 1 h pre-incubation, 1 h kinase reaction, values without *.
T1 construct: purchased Invitrogen PV3832
Format: biochemical
Protocol: This test uses active PTK2 enzyme (Invitrogen Code PV3832) and poly-Glu-Tyr (4:1, Sigma P-0275) as the kinase substrate. The kinase activity is detected through the phosphorylation of the substrate in a DELFIA™ assay. The phosphorylated substrate is detected with the europium-labelled phosphotyrosine antibody PT60 (Perkin Elmer, No.: AD00400).
In order to determine concentration-activity curves with PTK2-inhibitors the compounds are serially diluted in 10% DMSO/H20 and 10 μL of each dilution are placed in each well of a 96-well microtitre plate (clear plate with a U-shaped base, Greiner No. 650101) (the inhibitors are tested in duplicates) and mixed with 10 μL/well of PTK2 kinase (0.01 μg/well). PTK2 kinase has been correspondingly diluted beforehand with kinase dilution buffer (20 mM TRIS/HCl pH 7.5, 0.1 mM EDTA, 0.1 mM EGTA, 0.286 mM sodium orthovanadate, 10% glycerol with the addition of freshly prepared BSA (fraction V, 1 mg/mL) and DTT (1 mM)). The test compound and the PTK2 kinase are pre-incubated for 1 h at RT and shaken at 500 revolutions per min. The reaction is started by the addition of 10 μL/well poly (Glu,Tyr) substrate (25 μg/well poly (Glu, Tyr), 0.05 μg/well biotinylated poly (Glu,Tyr) dissolved in 250 mM TRIS/HCl pH 7.5, 9 mM DTT)—the final concentration of DMSO is 2%. Then 20 μL of ATP Mix (30 mM TRIS/HCl pH 7.5, 0.02% Brij, 0.2 mM sodium orthovanadate, 10 mM magnesium acetate, 0.1 mM EGTA, 1× phosphatase inhibitor cocktail 1 (Sigma, No.: P2850), 50 μM ATP (Sigma, No.: A3377; 15 mM stock solution)) are added. After 1 h of kinase reaction (the plates are shaken at 500 rpm), the reaction is stopped by the addition of 12 μL/well 100 mM EDTA, pH 8.0 and shaken for a further 5 min at RT (500 rpm). 55 μL of the reaction mixture are transferred into a streptavidin plate (Strepta Well High Bind (transparent, 96-well) made by Roche, No.: 11989685001) and incubated for 1 h at RT (shaking at 500 rpm). Then the microtitre plate is washed three times with 200 μL/well D-PBS (Invitrogen, No. 14190). 100 μL of a solution containing DELFIA Eu-N1 Anti-Phosphotyrosine PT60 antibody (Perkin Elmer, No.: AD0040, diluted 1:2000 in DELFIA test buffer (Perkin Elmer, No.: 1244-111)) is then added and the mixture is incubated for 1 h at RT (shaking at 500 rpm). Then the plate is washed three times with 200 μL/well DELFIA washing buffer (Perkin Elmer, No.: 1244-114), 200 μL/well strengthening solution (Perkin Elmer, No.: 1244-105) are added and the mixture is incubated for 10 min at RT (shaking at 300 rpm).
The time-delayed europium fluorescence is then measured in a microtitre plate reader (VICTOR^3, Perkin Elmer). […] Wells that contain test buffer instead of enzyme are used as a control of the background kinase activity.
The IC50 values are determined from analyses of the concentration activity by iterative calculation with the aid of a sigmoid curve analysis algorithm (FIFTY, based on GraphPAD Prism Version 3.03) with a variable Hill coefficient.

T1 sequence (Q05397 whole entry): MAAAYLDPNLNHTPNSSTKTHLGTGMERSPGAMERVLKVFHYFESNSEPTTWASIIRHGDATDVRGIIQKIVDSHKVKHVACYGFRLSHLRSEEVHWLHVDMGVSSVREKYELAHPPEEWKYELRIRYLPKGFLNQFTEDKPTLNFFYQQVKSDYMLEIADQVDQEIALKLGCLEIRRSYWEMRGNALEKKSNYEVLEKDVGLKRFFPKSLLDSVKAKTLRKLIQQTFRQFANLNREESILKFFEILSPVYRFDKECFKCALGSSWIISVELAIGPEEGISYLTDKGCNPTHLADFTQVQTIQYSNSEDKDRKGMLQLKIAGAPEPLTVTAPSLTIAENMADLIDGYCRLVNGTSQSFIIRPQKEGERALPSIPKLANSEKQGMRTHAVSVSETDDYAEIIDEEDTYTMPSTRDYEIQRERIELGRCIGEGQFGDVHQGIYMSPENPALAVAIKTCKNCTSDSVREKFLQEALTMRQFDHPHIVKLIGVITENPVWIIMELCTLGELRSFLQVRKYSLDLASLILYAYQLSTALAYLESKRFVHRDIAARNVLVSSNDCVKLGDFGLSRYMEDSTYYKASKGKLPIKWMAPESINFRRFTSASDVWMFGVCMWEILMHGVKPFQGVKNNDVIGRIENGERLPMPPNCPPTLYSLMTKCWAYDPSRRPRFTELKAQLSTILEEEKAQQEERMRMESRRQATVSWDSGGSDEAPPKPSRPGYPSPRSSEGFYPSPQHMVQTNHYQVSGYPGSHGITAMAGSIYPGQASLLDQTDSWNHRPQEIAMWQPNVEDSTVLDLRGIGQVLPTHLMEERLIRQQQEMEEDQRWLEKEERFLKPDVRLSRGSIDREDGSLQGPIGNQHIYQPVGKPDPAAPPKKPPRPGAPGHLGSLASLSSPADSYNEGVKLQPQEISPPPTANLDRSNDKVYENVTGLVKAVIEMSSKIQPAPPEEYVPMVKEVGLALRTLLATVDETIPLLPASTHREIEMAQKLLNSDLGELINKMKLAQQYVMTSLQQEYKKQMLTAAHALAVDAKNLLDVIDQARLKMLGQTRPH

| Compound | IC50 [nM] |
| --- | --- |
| COc1cc(C(=O)NC2CCN(C)CC2)ccc1Nc1ncc(C(F)(F)F)c(O[C@@H]2Cc3ccccc3[C@H]2NC(C)=O)n1 [Example 68, 4-[4-((1R,2R)-1-acetylamino-indan-2-yloxy)-5-trifluoromethyl-pyrimidin-2-ylamino]-3-methoxy-N-(1-methyl-piperidin-4-yl)-benzamide] | 2 |
| COc1cc(C(=O)NC2CCN(C)CC2)ccc1Nc1ncc(C(F)(F)F)c(O[C@@H]2Cc3ccccc3[C@@H]2N(C)S(C)(=O)=O)n1 [Example 69] | 42 |
| COc1cc(C(=O)NC2CCN(C)CC2)ccc1Nc1ncc(C(F)(F)F)c(O[C@H]2Cc3ccccc3[C@H]2N(C)S(C)(=O)=O)n1 [Example 70] | 238 |
| COc1cc(C(=O)NC2CCN(C)CC2)ccc1Nc1ncc(C(F)(F)F)c(O[C@@H]2Cc3ccccc3[C@@H]2NC(C)=O)n1 [Example 72] | 174 |
| COc1cc(C(=O)NN2CCN(C)CC2)ccc1Nc1ncc(C(F)(F)F)c(O[C@@H]2CCC[C@H]2NS(C)(=O)=O)n1 [Example 73] | 2 |
| COc1cc(C(=O)NC2CCN(C)CC2)c(Cl)cc1Nc1ncc(C(F)(F)F)c(O[C@@H]2CCCC[C@H]2N(C)S(C)(=O)=O)n1 [Example 74, 2-chloro-4-{4-[(1R,2R)-2-(methanesulphonyl-methyl-amino)-cyclohexyloxy]-5-trifluoromethyl-pyrimidin-2-ylamino}-5-methoxy-N-(1-methyl-piperidin-4-yl)-benzamide] | 0.42 |
| COc1cc(C(=O)NC2CCN(C)CC2)c(F)cc1Nc1ncc(C(F)(F)F)c(O[C@@H]2CCCC[C@H]2N(C)S(C)(=O)=O)n1 [Example 75, 2-fluoro-4-{4-[(1R,2R)-2-(methanesulphonyl-methyl-amino)-cyclohexyloxy]-5-trifluoromethyl-pyrimidin-2-ylamino}-5-methoxy-N-(1-methyl-piperidin-4-yl)-benzamide] | 0.31 |
| COc1cc(C(=O)NC2CCN(C)CC2)ccc1Nc1ncc(C(F)(F)F)c(O[C@@H]2CCCC[C@H]2N(C)S(C)(=O)=O)n1 [Example 76] | 0.29 |
| COc1cc(C(=O)NN2CCN(C)CC2)ccc1Nc1ncc(C(F)(F)F)c(O[C@@H]2CCCC[C@H]2N(C)S(C)(=O)=O)n1 [Example 77, 4-{4-[(1R,2R)-2-(methanesulphonyl-methyl-amino)-cyclohexyloxy]-5-trifluoromethyl-pyrimidin-2-ylamino}-3-methoxy-N-(4-methyl-piperazin-1-yl)-benzamide] | 0.3 |
| COc1cc(C(=O)NCCN(C)C)c(Cl)cc1Nc1ncc(C(F)(F)F)c(O[C@@H]2CCC[C@H]2NS(C)(=O)=O)n1 [Example 78] | 0.37 |
| COc1ccc(C(=O)NN2CCN(C)CC2)cc1Nc1ncc(C(F)(F)F)c(O[C@@H]2Cc3ccccc3[C@H]2N(C)S(C)(=O)=O)n1 [Example 80] | 0.41 |
| COc1ccc(C(=O)NCCN(C)C)cc1Nc1ncc(C(F)(F)F)c(O[C@@H]2Cc3ccccc3[C@H]2N(C)S(C)(=O)=O)n1 [Example 81] | 0.31 |
| COc1ccc(C(=O)NCCCN(C)C)cc1Nc1ncc(C(F)(F)F)c(O[C@@H]2Cc3ccccc3[C@H]2N(C)S(C)(=O)=O)n1 [Example 82] | 0.38 |
| Cc1nc2ccc(Nc3ncc(C(F)(F)F)c(O[C@@H]4CCC[C@H]4NS(C)(=O)=O)n3)cc2o1 [Example 83] | 1 |
| COc1cc(C(=O)NC2CCN(C)CC2)c(Cl)cc1Nc1ncc(Cl)c(O[C@@H]2CCC[C@H]2N(C)S(C)(=O)=O)n1 [Example 84, 2-chloro-4-{5-chloro-4-[(1R,2R)-2-(methanesulphonyl-methyl-amino)-cyclopentyloxy]-pyrimidin-2-ylamino}-5-methoxy-N-(1-methyl-piperidin-4-yl)-benzamide] | 0.32 |
| COc1cc(C(=O)NC2CCN(C)CC2)c(F)cc1Nc1ncc(Cl)c(O[C@@H]2CCC[C@H]2N(C)S(C)(=O)=O)n1 [Example 85, 4-{5-chloro-4-[(1R,2R)-2-(methanesulphonyl-methyl-amino)-cyclopentyloxy]-pyrimidin-2-ylamino}-2-fluoro-5-methoxy-N-(1-methyl-piperidin-4-yl)-benzamide] | 0.37 |

| Compound | IC50 [nM] |
| --- | --- |
| COc1cc(C(=O)NCCN(C)C)c(Cl)cc1Nc1ncc(C(F)(F)F)c(O[C@@H]2Cc3ccccc3[C@H]2NS(C)(=O)=O)n1 [Example 86] | 0.45 |
| COc1cc(C(=O)NC2CCN(C)CC2)c(Cl)cc1Nc1ncc(C(F)(F)F)c(O[C@@H]2Cc3ccccc3[C@H]2NS(C)(=O)=O)n1 [Example 87] | 0.28 |
| COc1cc(C(=O)NN2CCN(C)CC2)c(F)cc1Nc1ncc(Cl)c(O[C@@H]2CCC[C@H]2N(C)S(C)(=O)=O)n1 [Example 88, 4-{5-chloro-4-[(1R,2R)-2-(methanesulphonyl-methyl-amino)-cyclopentyloxy]-pyrimidin-2-ylamino}-2-fluoro-5-methoxy-N-(4-methyl-piperazin-1-yl)-benzamide] | 0.37 |
| COc1cc(C(=O)NN2CCN(C)CC2)ccc1Nc1ncc(C(F)(F)F)c(O[C@@H]2CCC[C@H]2N(C)S(C)(=O)=O)n1 [Example 89] | 0.33 |
| COc1cc(NC(=O)C2CCN(C)CC2)ccc1Nc1ncc(C(F)(F)F)c(O[C@@H]2Cc3ccccc3[C@H]2N(C)S(C)(=O)=O)n1 [Example 91] | 4 |
| COc1cc(NC(=O)C2CCCN(C)C2)ccc1Nc1ncc(C(F)(F)F)c(O[C@@H]2Cc3ccccc3[C@H]2N(C)S(C)(=O)=O)n1 (stereo partly shown) [Example 92] | 3 |
| COc1cc(C(=O)NC2CCN(C)CC2)c(Cl)cc1Nc1ncc(C(F)(F)F)c(O[C@@H]2CCCC[C@H]2NS(C)(=O)=O)n1 [Example 93] | 0.42 |
| COc1cc(NC(C)=O)ccc1Nc1ncc(C(F)(F)F)c(O[C@@H]2Cc3ccccc3[C@H]2N(C)S(C)(=O)=O)n1 [Example 94] | 5 |
| COc1cc(C(=O)NCCN(C)C)ccc1Nc1ncc(C(F)(F)F)c(O[C@@H]2Cc3ccccc3[C@H]2NS(C)(=O)=O)n1 [Example 95] | 0.56 |
| COc1cc(C(=O)NCCN(C)C)c(F)cc1Nc1ncc(C(F)(F)F)c(O[C@@H]2Cc3ccccc3[C@H]2NS(C)(=O)=O)n1 [Example 96] | 0.54 |
| CS(=O)(=O)N[C@@H]1CCC[C@H]1Oc1nc(Nc2ccc3ncsc3c2)ncc1C(F)(F)F [Example 97] | 2 |
| COc1cc(C(=O)NN2CCN(C)CC2)c(F)cc1Nc1ncc(C(F)(F)F)c(O[C@@H]2CCC[C@H]2NS(C)(=O)=O)n1 [Example 98] | 4 |
| COc1cc(C(=O)NCCN(C)C)c(F)cc1Nc1ncc(C(F)(F)F)c(O[C@@H]2CCC[C@H]2NS(C)(=O)=O)n1 [Example 99] | 0.37 |
| COc1cc(C(=O)NN2CCN(C)CC2)c(Cl)cc1Nc1ncc(C(F)(F)F)c(O[C@@H]2CCC[C@H]2N(C)S(C)(=O)=O)n1 [Example 100, 2-chloro-4-{4-[(1R,2R)-2-(methanesulphonyl-methyl-amino)-cyclopentyloxy]-5-trifluoromethyl-pyrimidin-2-ylamino}-5-methoxy-N-(4-methyl-piperazin-1-yl)-benzamide] | 0.26 |
| COc1cc(C(=O)NN2CCN(C)CC2)c(F)cc1Nc1ncc(C(F)(F)F)c(O[C@@H]2CCC[C@H]2N(C)S(C)(=O)=O)n1 [Example 101, 2-fluoro-4-{4-[(1R,2R)-2-(methanesulphonyl-methyl-amino)-cyclopentyloxy]-5-trifluoromethyl-pyrimidin-2-ylamino}-5-methoxy-N-(4-methyl-piperazin-1-yl)-benzamide] | 0.3 |
